Columns and labels:
[1] = Stability of compound in presence water assessed as pseudo-first order degradation rate constant at 10 uM at 20degC over 24 hrs; format: physicochemical; conditions: buffer
[2] = Stability of compound in presence of oxyhemoglobin assessed as pseudo-first order degradation rate constant at 10 uM at 20degC over 24 hrs; format: ADME
[3] = Stability of compound in presence of […] assessed as pseudo-first order degradation rate constant at 10 uM at 20degC over 24 hrs; format: ADME

Row | SMILES | Activity [1] [h⁻¹] | Activity [2] [h⁻¹] | Activity [3] [h⁻¹]
1 | O=C(O)C[C@H]1CC[C@]2(CC1)OO[C@]1(O2)C2CC3CC(C2)CC1C3 | 0.006 | 0.01 | 0.006
2 | CO[C@H]1O[C@@H]2O[C@@]3(C)CC[C@H]4[C@H](C)CC[C@@H]([C@H]1C)[C@@]24OO3 [ARTEMETHER] | 0.002 | 0.007 | 0.002
3 | C[C@@H]1CC[C@H]2[C@@H](C)C(=O)O[C@@H]3O[C@@]4(C)CC[C@@H]1[C@]32OO4 [ARTEMISININ] | 0.0004 | 0.008 | 0.003
4 | C[C@H]1[C@@H](O)O[C@@H]2O[C@@]3(C)CC[C@H]4[C@H](C)CC[C@@H]1[C@@]24OO3 [ARTENIMOL] | 0.00001 | 0.017 | 0.004
5 | CC(C)(N)CNC(=O)C[C@H]1CC[C@]2(CC1)OO[C@]1(O2)C2CC3CC(C2)CC1C3 [OZ277] | 0.015 | 0.01 | 0.013
